# Reference: patent US11584709B2, “Multitarget drug for treating diseases in mammals” (“PHARMENTERPRISES EURASIA” LIMITED LIABILITY COMPANY, priority 2017, dated 2023)
# Experiments:
# [1] = target: T1, tachykinin receptor type 2 (NK2R) (Homo sapiens, UniProt P21452); test: Activity of tachykinin receptor type 2 (NK2R), intracellular calcium, CHO cells; assay type: cell-based; settings: antagonist, [Nleu10]-NKA-(4-10) (10 nM) agonist
# T1 construct: expressed in transfected cells; host or cells: CHO cells
# T1 sequence (P21452 1-398): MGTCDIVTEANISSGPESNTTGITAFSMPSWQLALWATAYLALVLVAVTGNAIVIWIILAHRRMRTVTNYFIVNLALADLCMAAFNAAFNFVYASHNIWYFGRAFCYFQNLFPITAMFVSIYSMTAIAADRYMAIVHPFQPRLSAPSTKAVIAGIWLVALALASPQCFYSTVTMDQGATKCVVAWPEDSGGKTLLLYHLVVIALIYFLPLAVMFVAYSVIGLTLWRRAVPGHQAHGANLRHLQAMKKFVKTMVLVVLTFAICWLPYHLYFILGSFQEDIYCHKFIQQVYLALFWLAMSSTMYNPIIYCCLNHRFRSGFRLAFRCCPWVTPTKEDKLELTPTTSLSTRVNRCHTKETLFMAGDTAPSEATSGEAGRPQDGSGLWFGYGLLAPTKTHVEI
# Experimental: Compound 1 was dissolved in DMSO to a concentration of 100 mM; then a stock solution was serially diluted with DMSO. The maximum starting concentration of the substance is 100 μM. The effect was determined at 5 concentrations of the tested compounds, each concentration was studied twice. CHO cells expressing NK2R were used in the experiment, said sells, after the preincubation with an [Nleu10]-NKA-(4-10) (10 nM) agonist, were incubated with the test compound. The activity of receptors was determined according to the intracellular calcium concentration by fluorescence spectroscopy (Biochem Biophys Res Commun. 1994 May 16; 200(3):1512-20).
# [2] = target: T2, cannabinoid receptor type 1 (CB1R) (Homo sapiens, UniProt P21554); test: Activity of cannabinoid receptor type 1, CHO cells expressing CB1R; assay type: cell-based; settings: agonist, control CP55940 (30 nM)
# T2 construct: expressed in transfected cells; host or cells: CHO cells
# Experimental: Compound 1 was dissolved in DMSO to a concentration of 100 mM; then the stock solution was serially diluted with DMSO. The maximum starting concentration of the substance is 100 μM. The effect was determined at 5 concentrations of the tested compounds, each concentration was studied twice. CHO cells expressing CB1R were used in the experiment, these cells were incubated with the test compound. CP55940 (30 nM) compound was used as the control. The activity of receptors was determined by the intracellular calcium concentration by the homogeneous time resolved fluorescence spectroscopy (Mol Pharmacol. 1995 September; 48(3):443-50).
# [3] = target: T3, melanocortin receptor MC4R (Homo sapiens, UniProt P32245); test: Activity of melanocortin receptors MC4R, CHO cells; assay type: cell-based; settings: antagonist, NDP-alpha-MSH agonist (30 nM)
# T3 construct: expressed in transfected cells; host or cells: CHO cells
# Experimental: Compound 1 was dissolved in DMSO to a concentration of 100 mM; then a stock solution was serially diluted with DMSO. The maximum starting concentration of the substance is 100 μM. The effect was determined at 5 concentrations of the tested compounds, each concentration was studied twice. CHO cells expressing a melanocortin receptor MC4R were used in the experiment, these cells, after preincubation with a NDP-alpha-MSH agonist (30 nM), were incubated with the test compound. The activity of receptors was determined according to the intracellular calcium concentration by the homogeneous time resolved fluorescence spectroscopy.
# [4] = target: T4, serotonin receptors 5-HT2B (Homo sapiens, UniProt P41595); test: Activity of serotonin receptors 5-HT2B, CHO cells; assay type: cell-based; settings: antagonist, serotonin agonist (30 nM)
# T4 construct: expressed in transfected cells; host or cells: CHO cells
# Experimental: Compound 1 was dissolved in DMSO to a concentration of 100 mM; then a stock solution was serially diluted with DMSO. The maximum starting concentration of the substance is 100 μM. The effect was determined at 5 concentrations of the tested compounds, each concentration was studied twice. CHO cells expressing serotonin receptors 5-HT2B were used in the experiment, these cells, after preincubation with a serotonin agonist (30 nM), were incubated with the test compound. The activity of receptors was determined according to the intracellular calcium concentration of phosphatidylinositol by the homogeneous time resolved fluorescence spectroscopy (Br J Pharmacol. 1999 September; 128(1):13-20).
# [5] = test system: NF-kB signaling pathway; test: Activity of NF-kB signaling pathway, Jurkat lacZ reporter; assay type: cell-based; settings: Homo sapiens; inhibitor; Jurkat T lymphocytes, β-galactosidase reporter, substrate FDG
# [6] = test system: imiquimod-induced ear psoriasis; test: Mouse model of imiquimod-induced ear psoriasis; assay type: in vivo, female balb/c mice; settings: for The gain in the thickness of the right (affected) ear relatively day 0: 0.3% ointment, M ± m, n = 10
# Experimental: Psoriasis was simulated in female balb/c mice by applying Aldar cream (5% imiquimod) on the inner side of the right ear daily 1 time per day for 10 days (J Immunol. 2009 May 1; 182(9):5836-45). Vaseline was applied to intact animals: 20 mg on the right ear.
# The assessment of the development of pathology was performed on 2nd, 4th, 6th, 8th and 10th day before the next application of Aldar cream by measuring the thickness of the left and right ears.
# [7] = test system: motility of the gastrointestinal tract; test: Model of irritable bowel syndrome: motility of the gastrointestinal tract (activated carbon); assay type: in vivo, nonlinear male mice
# Experimental: The effect on the motility of the gastrointestinal tract was studied on a model of irritable bowel syndrome in nonlinear male mice weighing 24-30 g. The animals were intragastrically injected with a solution of activated carbon (50 mg/ml, in a volume of 10 ml/kg) and the speed (in minutes) of the movement of activated coal through the intestines of animals. The compounds under study were intragastrically administered once 1 hour before the introduction of activated carbon. Drotaverine (6.7 mg/kg), Buscopan (3 mg/kg) and Trimedat (33 mg/kg) were used as reference drugs.
# [8] = Stability in blood plasma, rabbit; assay type: in vitro ADME; settings: for Content, % from the initial, Mean (n = 2): rabbit blood plasma, 1 μM, 37° C.
# Experimental: Compound 1 at a concentration of 1 μM was incubated for 24 hours in the blood plasma of human and various animal species (rats, mice, guinea pigs, rabbits, horses, dogs, bull, pygmy hogs) at 37° C. Aliquots were taken at time points of 0, 0.25, 1, 2, 4, 8 and 24 hours. In the case of blood plasma of rabbits and monkeys, Compound 1 was incubated for 4 hours, and aliquots were taken at time points 0, 0.25, 1, 4. After the protein precipitation with acetonitrile, samples were analyzed by HPLC-MS/MS to determine the concentration of Compound 1. Verapamil was used as a stable control.
# T3 sequence (P32245 whole entry): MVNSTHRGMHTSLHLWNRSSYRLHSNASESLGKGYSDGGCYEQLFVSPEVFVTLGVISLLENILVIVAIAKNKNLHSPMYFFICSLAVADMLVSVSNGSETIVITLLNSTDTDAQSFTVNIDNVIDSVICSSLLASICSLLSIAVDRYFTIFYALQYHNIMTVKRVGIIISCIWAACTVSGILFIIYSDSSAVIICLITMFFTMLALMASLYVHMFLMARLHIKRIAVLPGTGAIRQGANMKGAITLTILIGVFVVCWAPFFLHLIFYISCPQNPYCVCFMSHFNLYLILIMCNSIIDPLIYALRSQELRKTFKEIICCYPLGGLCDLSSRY
# T4 sequence (P41595 whole entry): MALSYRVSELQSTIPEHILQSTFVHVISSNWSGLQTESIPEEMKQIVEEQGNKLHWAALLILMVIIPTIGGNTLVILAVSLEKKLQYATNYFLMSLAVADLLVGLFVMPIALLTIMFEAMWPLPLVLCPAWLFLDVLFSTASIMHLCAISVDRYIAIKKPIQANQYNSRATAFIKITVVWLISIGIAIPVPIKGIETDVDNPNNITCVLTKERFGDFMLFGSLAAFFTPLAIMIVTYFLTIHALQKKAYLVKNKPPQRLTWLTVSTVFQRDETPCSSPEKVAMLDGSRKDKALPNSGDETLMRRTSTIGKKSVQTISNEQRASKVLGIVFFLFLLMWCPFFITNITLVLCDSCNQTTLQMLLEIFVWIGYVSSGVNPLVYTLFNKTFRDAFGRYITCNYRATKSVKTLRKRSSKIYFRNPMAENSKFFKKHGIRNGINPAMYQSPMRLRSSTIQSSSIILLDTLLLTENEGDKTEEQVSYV
# T2 sequence (P21554 whole entry): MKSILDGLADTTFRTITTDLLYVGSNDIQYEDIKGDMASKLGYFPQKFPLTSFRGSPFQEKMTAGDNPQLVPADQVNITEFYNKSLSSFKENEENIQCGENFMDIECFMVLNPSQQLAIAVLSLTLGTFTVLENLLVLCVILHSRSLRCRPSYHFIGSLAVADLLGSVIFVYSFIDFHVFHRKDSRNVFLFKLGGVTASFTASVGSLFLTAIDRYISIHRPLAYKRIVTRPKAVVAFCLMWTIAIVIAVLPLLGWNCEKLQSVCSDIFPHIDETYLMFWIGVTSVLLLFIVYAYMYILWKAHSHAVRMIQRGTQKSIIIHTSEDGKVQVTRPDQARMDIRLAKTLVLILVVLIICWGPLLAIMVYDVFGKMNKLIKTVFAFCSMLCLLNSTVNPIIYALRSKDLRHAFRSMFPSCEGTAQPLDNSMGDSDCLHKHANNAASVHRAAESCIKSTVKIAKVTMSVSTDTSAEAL
compound,measurement,setting,value
"O=C(Cc1ccc(O)cc1)N[C@@H](Cc1ccccc1)C(=O)OCc1ccccc1 [Compound 1, benzyl (2S)-2-[2-(4-hydroxyphenyl)acetamido]-3-phenylpropanoate]",IC50,[1],8.4 µM
same,IC50,[2],3.3 µM
same,IC50,[3],7.6 µM
same,IC50,[4],8.9 µM
same,IC50,[5],9.9 µM
same,The gain in the thickness of the right (affected) ear relatively day 0,[6]; day 2,14.1%
same,The gain in the thickness of the right (affected) ear relatively day 0,[6]; day 4,22.1%
same,The gain in the thickness of the right (affected) ear relatively day 0,[6]; day 6,28.0%
same,The gain in the thickness of the right (affected) ear relatively day 0,[6]; day 8,19.4%
same,The gain in the thickness of the right (affected) ear relatively day 0,[6]; day 10,7.9%
same,reduction of the gain in the thickness of the right (affected) ear (in words),[6]; summary of table 1,to the level of intact animals
same,The evacuation speed of activated carbon,[7]; 0.5 mg/kg once intragastrically 1 hour before activated carbon,89.45 ± 1.9 min
same,The evacuation speed of activated carbon,[7]; 1.5 mg/kg once intragastrically 1 hour before activated carbon,104.25 ± 5.49 min
same,The evacuation speed of activated carbon,[7]; 5 mg/kg once intragastrically 1 hour before activated carbon,107.67 ± 3.07 min
same,The evacuation speed of activated carbon,[7]; 10 mg/kg once intragastrically 1 hour before activated carbon,126.6 ± 3.66 min
same,The evacuation speed of activated carbon,[7]; 15 mg/kg once intragastrically 1 hour before activated carbon,123.13 ± 5.27 min
same,The evacuation speed of activated carbon,[7]; 50 mg/kg once intragastrically 1 hour before activated carbon,129.13 ± 3.19 min
same,The evacuation speed of activated carbon,[7]; 150 mg/kg once intragastrically 1 hour before activated carbon,135.63 ± 2.87 min
same,increase of the evacuation time of activated carbon,[7]; summary of table 7,2 times
same,hydrolysis in the blood plasma (in words),"[8]; blood plasma of rabbits, after 15 minutes",almost completely hydrolyzed
same,"Content, % from the initial, Mean (n = 2)",[8]; 0 hour,100%
same,"Content, % from the initial, Mean (n = 2)",[8]; 0.25 hour,0.00%
same,"Content, % from the initial, Mean (n = 2)",[8]; 1 hour,0.00%
same,"Content, % from the initial, Mean (n = 2)",[8]; 4 hour,0.00%
